Measurements as given in patent publication US9790211B2, “5-amino-quinoline-8-carboxamide derivatives as 5-HT4 receptor agonists” (SUVEN LIFE SCIENCES LIMITED, priority 2013, dated 2017).

Key:
Aβ1-40 = experiment: Effect on CSF Aβ1-40 level (ELISA); format: in vivo, Male Sprague Dawley Rat; details: p.o., at two hour
Description: The control group of male rats received a vehicle (reagent grade water) per orally by gavage at a dose volume of 10 mL/kg. The treated groups (6 rat per group) received a single dose of test compound (different doses) or DAPT (50.0 mg/kg). Two hour post dose of vehicle or test compounds, rats were anesthetized with isoflurane and CSF was collected from Cisterna magna using 0.5 mL syringes by utilizing stereotaxic frame. The CSF samples were frozen in liquid nitrogen and stored at −80° C. until ELISA was performed.
• 1. CSF samples were thawed to RT and diluted with Tris Buffer Saline containing protease inhibitors at 1:10 ratio 115:150 μL (15 μL CSI+135 μL TBS. • 2. To this diluted CSF samples 0.15 mL of EIA buffer (1:1 ratio) was added. These diluted samples were subjected for Aβ1-40 level measurement by ELISA. Measurement of Aβ1-40 by ELISA Kit:
To investigate the role of an acute treatment of test compound on Aβ1-40 levels, expression of this protein in CSF was measured in treated and untreated rat by ELISA assay. The entire procedure was followed as per ELISA kit manual (Mouse/Rat Amyloid-Aβ1-40 ELISA, Cat No: 27721, IBL International, Hamburg, Germany).
Statistical analysis was performed using the Graph Pad Prism (Version 4). Data are Mean±SD of Aβ1-40 levels expressed as percentage of control values (rat which received regent grade water). Values were compared between the different groups by using unpaired t test. The significance level was set at *p<0.05; **p<0.01; ***p<0.001.

sAPPα = experiment: Estimation of mice brain cortical sAPPα levels (ELISA); format: in vivo; details: s.c., 60 minutes post treatment
Description: The control group of mice received sterile water for injection subcutaneously (s.c.). […] Mice were sacrificed 60 minutes after the drug injection by cervical dislocation, the brains were quickly isolated and the cortex was dissected at −20° C. The cortex was immediately kept on a dry ice and weighed before being stored at −80° C. until Enzyme-linked immunosorbent assay (ELISA) was performed. • 1. Brain tissues were thawed and Tris Buffer Saline containing protease inhibitors (TBS, 4 times by volume) added (0.8 mL/200 mg tissues). • 2. Brain tissue samples were homogenized using glass-Teflon homogenizer at 10 strokes. The resulting homogenates were centrifuged at 15,000 rpm at 4° C. for 60 minutes. • 3. The supernatant was discarded and to the precipitate, 4 times volume (0.8 mL/200 mg tissues) of TBS was added. Again homogenized followed by centrifugation at 15,000 rpm 4° C. for 30 minutes. • 4. From the above centrifuged mixture the supernatant was discarded and 10 times volume of 6M Guanidine-HCl in 50 mM Tris buffer pH: 7.6 (500 μL/50 mg tissues) was added. The resulting solution was sonicated for 5 seconds, 4 times. • 5. Resulting mixture was incubated at the RT for 30 minutes, followed by centrifugation at 15,000 rpm, 4° C. for 30 minutes. From this 5 μL of supernatant solution was taken and diluted with 155 μL of EIA buffer (dilution factor 32). Measurement of sAPPα by ELISA Kit: To investigate the role of an acute treatment of test compound on sAPPα levels, we measured the expression of this protein in homogenates from the cortex of treated and untreated mice by ELISA assay. The entire procedure was followed as described in the ELISA kit manual (Mouse/Rat sAPPα ELISA, Catalog Number: JP27415, […], Hamburg, Germany). Statistical analyses were performed using the Graph Pad Prism (Version 4). Data are Mean±SD of sAPPa levels expressed as percentage of control values (mice which received water for injection). Values were compared between the different groups by using unpaired t test. The significance level was set at *p<0.05; […]; ***<0.001.

[1] = test system: acetylcholine levels in the frontal cortex; experiment: Modulation of acetylcholine from the frontal cortex (microdialysis); format: in vivo, male Wistar rats; details: p.o.
From the text: Male Wistar rats (240-300 gram body weights) were stereotaxically implanted with a microdialysis guide cannula in the frontal cortex (AP: +3.2 mm, ML: −3.2 mm, DV: −1.5 mm). Co-ordinates were taken according to Paxinos and Watson (2007) with reference points taken from bregma and vertical from the skull. The rats were allowed to recover individually for five days in a round bottom Plexiglas bowl with free access to feed and water.
One day prior to the microdialysis experiment, rats were connected to a dual quartz lined two-channel liquid swivel (Instech. UK) on a counter balance lever arm, which allowed unrestricted movements of the animal. […]
On the day of study, probe was perfused at a constant flow rate of 1.5 (μL/min with artificial cerebrospinal fluid (aCSF; NaCl 147 mM. KCl 3.0 mM, MgCl2 1.0 mM, CaCl2. 2H2O 1.3 mM, NaH2PO4.2H2O 0.2 mM and Na2HPO4. 7H2O 1.0 mM, pH 7.2). A stabilization period of 2 h was maintained and five basal samples were collected at 20 minutes intervals. The compound of Example 18 or vehicle was administered and dialysate samples were collected at 20 minutes interval for an additional period of 4 hours. Dialysates were stored below −70° C. until quantitation of acetylcholine.
Acetylcholine in dialysate was quantified in the calibration range of 0.103 nmol-103.497 nmol using LC-MS/MS method. […]

Compound	decrease in the rat CSF Aβ1-40 levels (Aβ1-40; 0.03 mg/kg)	decrease in the rat CSF Aβ1-40 levels (Aβ1-40; 0.1 mg/kg)	decrease in the rat CSF Aβ1-40 levels (Aβ1-40; 0.3 mg/kg)	decrease in the rat CSF Aβ1-40 levels (Aβ1-40; 1.0 mg/kg)	decrease in the rat CSF Aβ1-40 levels (Aβ1-40; 3.0 mg/kg)	increase in the mice brain cortical sAPPα levels (sAPPα; 0.3 mg/kg)	increase in the mice brain cortical sAPPα levels (sAPPα; 1.0 mg/kg)	increase in the mice brain cortical sAPPα levels (sAPPα; 3.0 mg/kg)	increase in the mice brain cortical sAPPα levels (sAPPα; 10.0 mg/kg)	Area under the curve of acetylcholine change, frontal cortex (in words) ([1]; 10.0 mg/kg, vs vehicle, p<0.05)	acetylcholine levels from the frontal cortex (in words) ([1]; 3.0 and 10.0 mg/kg, male Wistar rats)
Nc1c(Cl)cc(C(=O)NCC2CCN(CC3CCOCC3)CC2)c2ncccc12.O=C(O)/C=C/C(=O)O [Example 1, 5-Amino-6-chloro-N-{[1-(tetrahydro-2H-pyran-4-ylmethyl)-4-piperidinyl]methyl}quinoline-8-carboxamide hemifumarate]	27%	24%	40%	22%	29%						
Nc1c(Cl)cc(C(=O)NCC2CCN(CC3CCOCC3)CC2)c2ncccc12.O=C(O)C(O)C(O)C(=O)O [Example 13, 5-Amino-6-chloro-N-{[1-(tetrahydro-2H-pyran-4-ylmethyl)-4-piperidinyl]methyl} quinoline-8-carboxamide L(+)-tartarate]						39%	41%	46%	66%	significant	dose dependent increase
